Results taken from patent US20240325398A1, “COMBINATION THERAPIES” (Infinity Pharmaceuticals, Inc., priority 2014, published 2024).

Columns and labels:
KARPAS-299 = assay: Combination study, ATPLite 72 h, dose matrix (Synergy Score, CI50); conditions: combination with Compound 1
OCI-Ly7 = assay: as above; conditions: combination with Compound 1, 72 h
GRANTA-519 = assay: as above; conditions: combination with Compound 1
Farage = assay: as above; conditions: combination with Compound 1; Farage; 72 h
KARPAS-422 = assay: as above; conditions: combination with Compound 1, 72 h
DOHH-2 = assay: as above; conditions: combination with Compound 1, 72 h
SU-DHL-10-epst = assay: as above; conditions: combination with Compound 1, 72 h
RPMI-8226 = assay: as above; conditions: combination with Compound 1
HH = assay: as above; type: cell-based; conditions: combination with Compound 1
Procedure: The method is described as follows.
Additive effect is CI=1.0. […] Antagonistic effect is CI>1.0.
The Synergy Score is calculated as: […]

WSU-NHL = assay: as above; conditions: combination with Compound 1, 72 h
SU-DHL-4-epst = assay: as above; conditions: combination with Compound 1, 72 h
OMP-2 = assay: as above; conditions: combination with Compound 1; OPM-2
Procedure: (§1) Cells are thawed from a liquid nitrogen preserved state. Once cells have been expanded and divide at their expected doubling times, screening begins. Cells are seeded in growth media in either black 1536-well or 384-well tissue culture treated plates. Cells are then equilibrated in assay plates via centrifugation and placed in incubators attached to the Dosing Modules at 37° C. for 24 hours before treatment. […] These Tzero (To) plates are read using ultra-sensitive luminescence on Envision plate readers (Perkin Elmer). Treated assay plates are incubated with compound for 72 hours. After 72 hours, plates are developed for endpoint analysis using ATPLite. All data points are collected via automated processes, quality controlled and analyzed using Zalicus software.
(§2) where T is treated cell count and V is untreated (vehicle) cell count (at 72 hours). I ranges from 0% (when T=V) to 100% (when T=0). […] The measure of effect in the experiment can be the inhibition of cellular response relative to the untreated level (vehicle alone). […] The inhibition ranges from 0% at the untreated level to 100% when T=0. Inhibition levels are negative for agents that actually increase levels. Other effect measures, such as an activity ratio r=T/V may be more appropriate for some assays. When activity ratios (e.g, fold increase over stimulated control) are being used, the effect can be measured using an induction 1=ln(T/V). With this definition, all effect expressions are the same as for inhibition.
(§3) Growth Inhibition (GI) is used as a measure of cell viability. […] A GI reading of 100% represents complete growth inhibition—T72 compound-treated and T0 vehicle signals are matched. […] A GI reading of 200% represents complete death of all cells in the culture well. Compounds reaching an activity plateau of GI 200% are considered cytotoxic. GI is calculated by applying the following test and equation:
(§4) Combination analysis data were collected in a 6×6 dose matrix. Synergy is calculated by comparing a combination's response to those of its single compound, against the drug-with-itself dose-additive reference model. Deviations from dose additivity may be assessed visually on an isobologram or numerically with a Combination Index (CI). […] Additive effect is CI=1.0. […] Antagonistic effect is CI>1.0.
(§5) To measure combination effects in excess of Loewe additivity, a scalar measure to characterize the strength of synergistic interaction termed the Synergy Score is devised. The Synergy Score is calculated as:
(§6) The fractional inhibition for each component agent and combination point in the matrix is calculated relative to the median of all vehicle-treated control wells. The Synergy Score equation integrates the experimentally-observed activity volume at each point in the matrix in excess of a model surface numerically derived from the activity of the component agents using the Loewe model for additivity. Additional terms in the Synergy Score equation (above) are used to normalize for various dilution factors used for individual agents and to allow for comparison of synergy scores across an entire experiment. The inclusion of positive inhibition gating or an Idata multiplier removes noise near the zero effect level, and biases results for synergistic interactions at that occur at high activity levels.
(§7) Loewe Volume (Loewe Vol) is used to assess the overall magnitude of the combination interaction in excess of the Loewe additivity model. Loewe Volume is particularly useful when distinguishing synergistic increases in a phenotypic activity (positive Loewe Volume) versus synergistic antagonisms (negative Loewe Volume). […] This model defines additivity as a non-synergistic combination interaction where the combination dose matrix surface should be indistinguishable from either drug crossed with itself.

[1] = as above; conditions: combination with Compound 1; OPM-2
Procedure: as §1, §2, §3, §4, §5, §6, §7

Mino = assay: as above; conditions: combination with Compound 1
TMD8 = assay: as above; conditions: combination with Compound 1; TMD8; 72 h
NCI-H929 = assay: as above; conditions: combination with Compound 1
OCI-Ly3 = assay: as above; conditions: combination with Compound 1; OCI-Ly3; 72 h
U-2932 = assay: as above; conditions: combination with Compound 1, 72 h
RL = assay: as above; conditions: combination with Compound 1, 72 h
Jeko-1 = assay: as above; conditions: combination with Compound 1
HBL-1 = assay: as above; conditions: combination with Compound 1, 72 h

CC(C)C[C@H](NC(=O)[C@H](Cc1ccccc1)NC(=O)c1cnccn1)B(O)O [bortezomib, [(1R)-3-methyl-1-({(2S)-3-phenyl-2-[(pyrazin-2-ylcarbonyl)amino]propanoyl}amino)butyl]boronic acid]
U (U=0.7 to <1): CI50 growth inhibition (KARPAS-299) | CI50 inhibition (KARPAS-299) | CI50 growth inhibition (OCI-Ly7) | CI50 inhibition (OCI-Ly7) | CI50 inhibition (GRANTA-519) | CI50 growth inhibition (Farage) | CI50 inhibition (Farage) | CI50 growth inhibition (DOHH-2) | CI50 inhibition (DOHH-2) | CI50 growth inhibition (SU-DHL-10-epst) | CI50 inhibition (SU-DHL-10-epst) | CI50 growth inhibition (RPMI-8226) | CI50 inhibition (RPMI-8226) | CI50 growth inhibition (HH) | CI50 inhibition (HH) | CI50 growth inhibition (WSU-NHL) | CI50 inhibition (WSU-NHL) | CI50 growth inhibition (SU-DHL-4-epst) | CI50 growth inhibition (Mino) | CI50 inhibition (Mino) | CI50 growth inhibition (TMD8) | CI50 inhibition (TMD8) | CI50 growth inhibition (NCI-H929) | CI50 growth inhibition (OCI-Ly3) | CI50 growth inhibition (U-2932) | CI50 growth inhibition (RL) | CI50 growth inhibition (Jeko-1) | CI50 inhibition (Jeko-1) | CI50 growth inhibition (HBL-1) | CI50 inhibition (HBL-1)
W (W=≥1): CI50 growth inhibition (KARPAS-422) | CI50 inhibition (KARPAS-422) | CI50 inhibition (OMP-2) | CI50 growth inhibition [1] | CI50 inhibition (NCI-H929) | CI50 inhibition (OCI-Ly3) | CI50 inhibition (U-2932) | CI50 inhibition (RL)
T (T=0.5 to <0.7): CI50 growth inhibition (GRANTA-519) | CI50 inhibition (SU-DHL-4-epst)

Nc1ncn([C@@H]2O[C@H](CO)[C@@H](O)[C@H]2O)c(=O)n1 [Azacitidine]
U (U=0.7 to <1): CI50 growth inhibition (GRANTA-519) | CI50 inhibition (KARPAS-422) | CI50 growth inhibition (DOHH-2) | CI50 inhibition (DOHH-2) | CI50 growth inhibition (TMD8) | CI50 inhibition (TMD8) | CI50 growth inhibition (NCI-H929) | CI50 inhibition (NCI-H929) | CI50 inhibition (RL)
W (W=≥1): CI50 growth inhibition (KARPAS-299) | CI50 inhibition (KARPAS-299) | CI50 inhibition (RPMI-8226) | CI50 inhibition (OMP-2) | CI50 inhibition (U-2932) | CI50 inhibition (HBL-1)
S (S=0.01 to <0.5): CI50 growth inhibition (Farage) | CI50 inhibition (Farage) | CI50 growth inhibition (SU-DHL-10-epst) | CI50 inhibition (SU-DHL-10-epst) | CI50 growth inhibition (HH) | CI50 inhibition (HH) | CI50 inhibition (WSU-NHL) | CI50 growth inhibition (SU-DHL-4-epst) | CI50 inhibition (SU-DHL-4-epst) | CI50 growth inhibition [1] | CI50 growth inhibition (Mino) | CI50 inhibition (Mino) | CI50 growth inhibition (OCI-Ly3) | CI50 growth inhibition (U-2932) | CI50 growth inhibition (Jeko-1) | CI50 growth inhibition (HBL-1)
T (T=0.5 to <0.7): CI50 growth inhibition (OCI-Ly7) | CI50 inhibition (OCI-Ly7) | CI50 growth inhibition (KARPAS-422) | CI50 growth inhibition (RPMI-8226) | CI50 growth inhibition (WSU-NHL) | CI50 growth inhibition (RL) | CI50 inhibition (Jeko-1)
